Test results taken from PubChem BioAssay AID1963865 (Molecular Pharmacology Branch, DTP, NCI, 2024).

System: KRAS PDC multicell spheroid viability
Test: Anticancer human tumor 825966-067-R-J1-PDC patient-derived colon carcinoma cell line growth inhibition [KRAS2]
Conditions: for viability, T/C: stronger effect = lower value
Text: Multicellular complex tumor spheroid response to RAS pathway inhibitors in combination with a targeted agents in patient-derived cell lines with oncogenic KRAS variants from multiple cancer types
A high-throughput screen of multi-cell type tumor spheroids was designed to identify active combinations of targeted small molecules and KRAS pathway inhibitors. Complex spheroids include a stromal component modeled by human endothelial cells (HUVEC) and fibroblasts modeled by human mesenchymal stem cells (MSCs). The concentration ranges selected for each drug and investigational agent were based upon clinically achievable concentrations if the clinical Cmax of the agent was known.
Compounds. The drugs and investigational agents: BI-3406 (NSC825286), BAY-293 (NSC824723), batoprotafib (TNO155; NSC825523), sotorasib (AMG 510; NSC818433), MRTX1257 (NSC819558), elimusertib (BAY 1895344; NSC800525), molibresib (GSK525762; NSC774829), temuterkib (LY3214996; NSC803410), venetoclax (NSC766270), alisertib (NSC759677), olaparib (NSC753686), talazoparib (NSC767125), erdafitinib (NSC781556), ipatasertib (NSC767898), cabozantinib (NSC761068), nintedanib (NSC756659), abemaciclib (NSC768073), docetaxel (NSC628503), trametinib (NSC758246), and sapanisertib (NSC764658) were obtained from the National Cancer Institute (NCI) Developmental Therapeutics Program Chemical Repository. The FDA-approved anticancer drug set is available from the Developmental Therapeutics Program. […] The stock solutions were prepared in dimethyl sulfoxide (DMSO, Sigma-Aldrich, St. Louis, MO, cat. D2650) at 800-fold the tested concentration and stored at -70 degrees C prior to their use. All drugs and investigational agents were tested over a range starting from a high concentration at or near the clinical Cmax and decreasing in half-log increments. If the clinical Cmax for an agent had not been determined, the highest concentration tested was 10 microM.
Cell Culture. All cells were maintained in an incubator at 37 degrees C and 5% CO2 with 95% humidity. The PDC lines were cultured according to standard operating procedures established by the NCI PDMR (https://pdmr.cancer.gov/sops/default.htm). Briefly, all PDCs were thawed and cultured in Matrigel-coated flasks prepared with a working solution of 1X Ham's F-12 nutrient mix, without supplementation (Invitrogen, Waltham, MA, cat. 11765054), 100 U/mL penicillin-streptomycin (Invitrogen, cat. 15140122), and 2.5% Matrigel (Corning Inc., Corning, NY, cat. 354248) for the first three passages. All PDCs were cultured in complete DMEM/F-12 media containing advanced DMEM/F-12 (Invitrogen, cat. 12634028), 4.9% defined fetal bovine serum, heat inactivated (HyClone Laboratories Inc., Logan, UT, cat. SH30070.03HI), 389 ng/mL hydrocortisone (Sigma-Aldrich, cat. H4001), 9.7 ng/mL human EGF recombinant protein (Invitrogen, cat. PHG0313), 23.4 microg/mL adenine (Sigma-Aldrich, cat. A2786), 97.3 U/mL penicillin-streptomycin (Invitrogen, cat. 15140122), 1.9 mM L-glutamine (Invitrogen, cat. 25030081), and 9.7 microM Y-27632 dihydrochloride (Tocris Bioscience, Bristol, United Kingdom, cat. 1254). The PDCs were cultured in complete DMEM/F12 media without 9.7 microM Y-27632 dihydrochloride for at least two passages prior to the screen. The established cell line HOP-62 was cultured in RPMI 1640 medium, HEPES (Invitrogen, cat. 22400105) with 10% defined fetal bovine serum (HyClone Laboratories Inc., cat. SH30070.03) and 2 mM L-glutamine (Invitrogen, cat. 25030081). The pooled donor HUVEC were cultured in endothelial cell growth medium 2 (PromoCell, Heidelberg, Germany, cat. C-22011) and the hMSC were cultured in mesenchymal stem cell growth medium 2 (PromoCell, cat. C-28009). For all experiments, HUVEC and hMSC were used at passages </=5, while the malignant cell lines were used at passages </=15. […]

[1] = curve of first compound, second compound 0.0316 µM
[2] = curve of first compound, second compound 0.1 µM
[3] = curve of first compound, second compound 0.316 µM
[4] = curve of first compound, second compound 1 µM
[5] = curve of first compound, second compound 3.16 µM
[6] = second compound 0.0316 µM, first compound 0.0316 µM
[7] = second compound 0.0316 µM, first compound 0.1 µM
[8] = second compound 0.0316 µM, first compound 0.316 µM
[9] = second compound 0.0316 µM, first compound 1 µM
[10] = second compound 0.0316 µM, first compound 3.16 µM
[11] = second compound 0.0316 µM, first compound 10 µM
[12] = second compound 0.1 µM, first compound 0.0316 µM
[13] = second compound 0.1 µM, first compound 0.1 µM
[14] = second compound 0.1 µM, first compound 0.316 µM
[15] = second compound 0.1 µM, first compound 1 µM
[16] = second compound 0.1 µM, first compound 3.16 µM
[17] = second compound 0.1 µM, first compound 10 µM
[18] = second compound 0.316 µM, first compound 0.0316 µM
[19] = second compound 0.316 µM, first compound 0.1 µM
[20] = second compound 0.316 µM, first compound 0.316 µM
[21] = second compound 0.316 µM, first compound 1 µM
[22] = second compound 0.316 µM, first compound 3.16 µM
[23] = second compound 0.316 µM, first compound 10 µM
[24] = second compound 1 µM, first compound 0.0316 µM
[25] = second compound 1 µM, first compound 0.1 µM
[26] = second compound 1 µM, first compound 0.316 µM
[27] = second compound 1 µM, first compound 1 µM
[28] = second compound 1 µM, first compound 3.16 µM
[29] = second compound 1 µM, first compound 10 µM
[30] = second compound 3.16 µM, first compound 0.0316 µM
[31] = second compound 3.16 µM, first compound 0.1 µM
[32] = second compound 3.16 µM, first compound 0.316 µM
[33] = second compound 3.16 µM, first compound 1 µM
[34] = second compound 3.16 µM, first compound 3.16 µM
[35] = second compound 3.16 µM, first compound 10 µM
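Further: spheroids exposed to compounds for 7 days.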
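Wherever viability, T/C is given: 100% = DMSO vehicle control viability.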

Structure (SMILES)	IC50 [2] [µM]	IC50 [3] [µM]	IC50 [4] [µM]	IC50 [5] [µM]	viability, T/C [12] [%]	viability, T/C [13] [%]	viability, T/C [14] [%]	viability, T/C [15] [%]	viability, T/C [16] [%]	viability, T/C [17] [%]	viability, T/C [18] [%]	viability, T/C [19] [%]	viability, T/C [20] [%]	viability, T/C [21] [%]	viability, T/C [22] [%]	viability, T/C [23] [%]	viability, T/C [24] [%]	viability, T/C [25] [%]	viability, T/C [26] [%]	viability, T/C [27] [%]	other results
CC1OCC2(CCN(c3cnc(Sc4ccnc(N)c4Cl)c(N)n3)CC2)C1N (configuration not stated) + C=CC(=O)N1CCN(c2nc(OCC3CCCN3C)nc3c2CCN(c2cccc4cccc(C)c24)C3)CC1CC#N	8.78	6.86	7.18	5.79	84.6	75	114	83.5	89.9	44.9	94.5	83.5	90.4	107	115	26.4	87.2	105	97.7	97.3	IC50 [1]: 8.77 µM; viability, T/C [6]: 105%; viability, T/C [7]: 97%; viability, T/C [8]: 92.5%; viability, T/C [9]: 82.3%; viability, T/C [10]: 106%; viability, T/C [11]: 44%; viability, T/C [28]: 121%; viability, T/C [29]: 29.1%; viability, T/C [30]: 81.4%; viability, T/C [31]: 116%; viability, T/C [32]: 102%; viability, T/C [33]: 110%; viability, T/C [34]: 99%; viability, T/C [35]: 5.73%
CC1(C)CCC(CN2CCN(c3ccc(C(=O)NS(=O)(=O)c4ccc(NCC5CCOCC5)c([N+](=O)[O-])c4)c(Oc4cnc5[nH]ccc5c4)c3)CC2)=C(c2ccc(Cl)cc2)C1 + C=CC(=O)N1CCN(c2nc(OCC3CCCN3C)nc3c2CCN(c2cccc4cccc(C)c24)C3)CC1CC#N	1.79	1.77	1.81	0.347	96.7	72	98.6	96.3	9.74	5.69	93.8	88.8	87.9	93.4	8.01	5.23	98.6	103	100	104	IC50 [1]: 1.85 µM; viability, T/C [6]: 104%; viability, T/C [7]: 96%; viability, T/C [8]: 84.3%; viability, T/C [9]: 93%; viability, T/C [10]: 12.6%; viability, T/C [11]: 0.73%; viability, T/C [28]: 1.8%; viability, T/C [29]: 0.52%; viability, T/C [30]: 89%; viability, T/C [31]: 78.2%; viability, T/C [32]: 54.7%; viability, T/C [33]: 10.2%; viability, T/C [34]: 0.3%; viability, T/C [35]: 2.95%
O=C(c1cc(Cc2n[nH]c(=O)c3ccccc23)ccc1F)N1CCN(C(=O)C2CC2)CC1 + C=CC(=O)N1CCN(c2nc(=O)n(-c3c(C)ccnc3C(C)C)c3nc(-c4c(O)cccc4F)c(F)cc23)C(C)C1	> 10	> 10	> 10	> 10	97.5	89.9	107	71.9	71.1	77.9	90.2	96.8	77.2	81.9	65.7	80.9	100	84.3	77.8	62.8	IC50 (curve of first compound, second compound 10 µM): > 10 µM; viability, T/C [28]: 70.8%; viability, T/C [29]: 88.1%; viability, T/C [30]: 68.3%; viability, T/C [31]: 90.3%; viability, T/C [32]: 78.4%; viability, T/C [33]: 75.8%; viability, T/C [34]: 73.3%; viability, T/C [35]: 70.4%; viability, T/C (second compound 10 µM, first compound 0.0316 µM): 96.4%; viability, T/C (second compound 10 µM, first compound 0.1 µM): 82.3%; viability, T/C (second compound 10 µM, first compound 0.316 µM): 90.8%; viability, T/C (second compound 10 µM, first compound 1 µM): 72%; viability, T/C (second compound 10 µM, first compound 3.16 µM): 66.5%; viability, T/C (second compound 10 µM, first compound 10 µM): 91.7%
Cn1ncnc1[C@H]1c2n[nH]c(=O)c3cc(F)cc(c23)N[C@@H]1c1ccc(F)cc1	–	–	–	–	–	–	–	–	–	–	–	–	–	–	–	–	–	–	–	–	viability, T/C (compound 0.01 µM): 82.8% [middle of 5 runs]; IC50 (curve of compound): > 0.1 µM
